The target of experiment [1] is T1, HCV replicon cell lysate sg 1b (NS3) (Hepatitis C virus genotype 1b, UniProt Q9WMX2).
T1 construct: host or cells: Huh7 Clone B cells stably replicating an HCV 1b subgenomic replicon; whole cell lysate
The experiment can be described thus: Whole cell lysate inhibition assay, HCV subgenomic replicon 1b. Type of experiment: biochemical. The procedure:
(§1) Huh7-1 cells (also known as Huh7/scr cells) were obtained from F.V. Chisari (The Scripps Research Institute, La Jolla, CA). Clone B HCV sub-genotype 1b Huh7 cells were obtained from the NIH AIDS Research and Reference Reagent Program and have been previously described. Huh7 cells stably replicating the sub-genotype 2a HCV JFH-1 replicon were generated as previously described. All cells were cultured in complete Dulbecco’s modified Eagle’s medium (DMEM) supplemented with 10% fetal bovine serum, 100 units/mL penicillin, […] streptomycin, and 2 mM L-glutamine. HCV replicon cells were maintained in 500 µg/mL Geneticin (Invitrogen). For NS3 inhibition analysis, lysates from parental Huh7 cells and HCV replicon cells were harvested on ice in pre-chilled FRET cell lysis buffer (50 mM Tris-HCl, pH 7.5; 150 mM NaCl, 2 mM EDTA, 1.25% Triton X-100). Lysates were brought to room temperature and mixed 1∶1 with 2× FRET assay buffer (100 mM Tris-HCl, pH 7.5, 300 mM NaCl, 4 mM EDTA, 2.5% Triton X-100, 10 mM GSH, and 4 µM substrate). Fluorescence intensity was continuously monitored for 1 hour, and IC50 values were determined in the same way as biochemical assays.
In general terms: In antiviral work, replicon cells carry a viral genome segment that copies itself.

The target in experiment [2] is T2, NS3/4A protease genotype 2a (Hepatitis C virus genotype 2a, UniProt Q99IB8).
T2 construct: against the NS3/4A protease domains from three additional HCV genotypes (1a, 2a, and 4d); purchased Anaspec
The experiment can be described thus: Inhibition assay with NS3/4A from genotype 2a. Type of experiment: biochemical. The conditions noted are these: IC50 Purified NS3/4A Sub-genotype 2a, genotype 2a. On the procedure:
The inhibitory activity of the final hit compounds from HTS were tested against three other HCV genotypes (1a, 2a, and 4d), along with a control (genotype 1b) and five NS3 drug-resistant mutants. Eight full-length NS3 mutants (V36M, R155K, A156T, A156S, 156V, V36A, T54A, and R155T) were generated by mutagenesis and purified, and the three HCV NS3/4A protease genotypes were purchased from Anaspec. Unfortunately the enzyme activities of the three mutants V36A, T54A, and R155T were much less than that of the rest of the mutants and were insufficient for testing, therefore mutant studies were done with the five active mutants. Continuous kinetic assays were performed against all hit compounds in the same way as the wild-type NS3/4A. As a control, full-length NS3/4A (genotype 1b) was tested under the same conditions for direct comparison for each plate.

The target in a further experiment is T3, full-length NS3/4A (Hepatitis C virus genotype 1b, UniProt Q9WMX2).
T3 construct: wild-type HCV NS3 (HCV polyprotein residues 1027–1657); His-tag (N); made in house
In words: Type (mechanism) of enzyme inhibition, kinetic analysis. Type of experiment: biochemical. The conditions noted are these: with respect to the substrate, best fit model. On the procedure: Full-length NS3/4A activity was monitored in the same way as the primary screening with varying concentration of both inhibitor compounds and substrate (0–8 µM). The concentration of compounds varied from 0 to 20 µM at 1.5-fold dilution factor.

The next experiment concerns replicon cells 1b. More on the design: method as in PMID 19457562, PMID 14578911. The conditions noted are these: cited from earlier work.
The target in another experiment is T4, NS3 protease domain (Hepatitis C virus genotype 1b, UniProt Q9WMX2).
T4 construct: the full-length NS3/4A and the NS3/4A protease domain alone
The experiment can be described thus: Fluorescence enzymatic assay with NS3 protease domain alone. Type of experiment: biochemical. The procedure:
(§2) A series of compound concentrations (0 to 200 µM final concentration at 2-fold serial dilution) in 100% DMSO were prepared in a 384-well plate. 20 µL of enzyme solution was distributed to wells, and 0.5 µL of varying concentration of compounds were added and incubated for 5 minutes. The enzyme reaction was initiated by adding 5 µL of the substrate, and its activity was continuously monitored for 6 minutes. The IC50 values were calculated by fitting with the Hill equation (1), with OriginPro 8.5 (OriginLab, Inc.) where y is percent inhibition, x is inhibitor concentration, n is the slope of the concentration–response curve (Hill slope), and Vmax is maximal inhibition from two to four independent assays. [drawing 1] (1)

For experiment [3], the target named is T5, full-length NS3/4A protease (genotype 1b) (Hepatitis C virus genotype 1b, UniProt Q9WMX2).
T5 construct: wild-type HCV NS3 (HCV polyprotein residues 1027–1657); His-tag (N); made in house
In words: biochemical. The conditions noted are these: IC50 Full-length NS3/4A, purified full-length NS3/4A, genotype 1b wild-type. The procedure:
All assays were done in duplicate in black 384-well plates (Matrix Technologies). […] 200 nL of 10 mM compound (50 µM final concentrations) were then added and incubated for 5 minutes. Enzyme reactions were initiated with 10 µL of substrate Ac-DE-Dap(QXL520)-EE-Abu-ψ-[COO]AS-C(5-FAMsp)-NH2 (Anaspec) (1 µM final concentration), incubated for 6 minutes, and quenched by 10 µL of 10% SDS as a stop solution. Fluorescence intensity was monitored with a POLARstar OPTIMA microplate reader (BMG LABTECH). Each plate contained a total of 32 positive and 32 negative controls.
as §2

In a further experiment the test system is replicon cells 2a. More on the design: method as in PMID 19457562, PMID 14578911. The note with it: cited from earlier work.
Experiment [4] addresses T6, HCV replicon cell lysate sg 2a (NS3) (Hepatitis C virus genotype 2a, UniProt Q99IB8).
T6 construct: expressed in transfected cells; host or cells: Huh7 cells stably replicating the JFH-1 subgenomic replicon; whole cell lysate
The experiment can be described thus: Whole cell lysate inhibition assay, HCV subgenomic replicon 2a. Type of experiment: biochemical. The procedure: as §1

Molecules are shown by their SMILES.

Turning to `COc1ccc2c(O[C@@H]3C[C@H]4C(=O)N[C@]5(C(=O)O)C[C@H]5/C=C\CCCCC[C@H](NC(=O)OC5CCCC5)C(=O)N4C3)cc(-c3csc(NC(C)C)n3)nc2c1` [BILN-2061, reference compound], the “fold increase of IC50, whole cell lysate 1b vs biochemical assay” value in experiment [1] (sg1b lysate compared to purified enzyme) is reported as about 8 fold. In addition, the IC50 in experiment [1] (whole cell lysate, subgenomic replicon 1b) was found to be 37 ± 10 nM; in experiment [2], 12 ± 1 nM; on NS3 protease domain, 1.7 ± 0.1 nM; in experiment [3], 4.6 ± 0.5 nM; in experiment [4] (whole cell lysate, subgenomic replicon 2a), 230 ± 30 nM. For the same compound, the mechanism of inhibition entry at full-length NS3/4A was “competitive inhibition”. Also, the EC50 in the experiment on replicon cells 1b was 3 nM; in the experiment with replicon cells 2a, 67 nM. In addition, in experiment [4] (sg2a lysate compared to purified enzyme), the “fold increase of IC50, whole cell lysate 2a vs biochemical assay” value was about 19 fold.

One may read the IC50 as the point on the concentration scale where inhibition reaches its midpoint. Low readings indicate greater potency in that assay, high ones weaker potency in that assay. In general, EC50 refers to the concentration needed to bring the measured effect to its halfway point.

Source of the values: publication PMC3793977, “High-Throughput Screening (HTS) and Hit Validation to Identify Small Molecule Inhibitors with Activity against NS3/4A proteases from Multiple Hepatitis C Virus Genotypes” (PLoS ONE, 2013).
